According to EP0277849A1, “Incorporation of one or more lipophilic, active principles into lipoproteins, lipoproteins obtained and pharmaceutical compositions containing them” (IRE-CELLTARG S.A., priority 1987, dated 1988):
Like-named read-outs stand apart in the source and are kept apart here.

Tests used:
[1] = Incorporation of cytotoxic agent into LDL with submicellar NaDOC; format: physicochemical
Method: Les LDL isolées sur sépharose CL-4B sont dialysées pendant 24 heures à 4° C contre un tampon C.
L'agent thérapeutique est solubilisé dans un solvant organique à raison de 1 mg par ml. 100 µL de cette solution sont évaporés sous Argon dans un tube à essai. On ajoute au résidu sec, 2 ml de la solution de LDL et du NaDOC de façon à atteindre une concentration finale de 1 à 5 mM selon l'agent thérapeutique considéré. […]
Au terme de l'incubation, l'échantillon est filtré sur un filtre Millipore 0,45 µm. Le NaDOC est ensuite éliminé par chromatographie sur gel P6 (Biorard®) préalablement équilibré avec un tampon C.
La concentration en ApoB et en agent thérapeutique est déterminée sur chaque fraction.Les fractions correspondant aux LDL sont mises en commun et dialysées contre un tampon τrisHCl 10 mM NaCI 0,15 M EDTA 0,3 mM pH 7,4 pendant 24 heures à 4°C.
L'ensemble du procédé décrit en IV-1 a été appliqué à un dérivé VINCA ALCALOIDE liposoluble : le "C91 base": (4-désacétyl-vinblastine C-3N-dodécyl-carboxamide). La concentration en NaDOC utilisée lors de l'incubation a été ajustée à 2 mM final.
Si on précipite sélectivement les LDL, plus de 99 % du C91 base se retrouve dans le culot. On confirme ainsi que l'agent thérapeutique est bien associé aux LDL. On appellera cette préparation : LDL-C91. […]

[2] = tested on: Candida tropicalis; test: Intracellular infection model: J77468 macrophages infected with Candida tropicalis; format: cell-based; details: 2 % de sérum de veau foetal
Method: (§1) La lignée continue de macrophages J77468 d'origine murine provient d'un clonage de la souche J774 ATCC, et est cultivée en milieu RPMI 1640 additionné de glutamine 2 mM, 10% de sérum de veau foetal (décomplémenté 60 min. à 56°) et de 10 mM Hepes (pH 7.2). Une suspension de 5 10^6 cellules/ml sont infectées avec une culture de Candida tropicalis (5 10^5 levures/ml) provenant d'une culture de nuit dans de la casitone. Le milieu d'infection utilisé est du RPMI contenant 2 % de sérum de veau nouveau-né et 10 mM Hepes (pH 7.2).
(§2) Après 3 h d'incubation à 37° dans un mélange d'air 10 % C02, la phagocytose des levures est complète. La suspension cellulaire macrophages-Candida est centrifugée, lavée abondamment et répartie à raison de 10^5 macrophages infectés/alvéole dans des boîtes à 24 alvéoles contenant une lamelle de verre (diamètre 14 mm). Après 3 h de phagocytose (To), sur 100 macrophages, 32 contiennent de 1 à 6 Candida/macrophage, l'infection moyenne étant de 2 Candida/macrophage.
(§3) Toutes les levures ont été phagocytées sauf rares exceptions (estimation au microscope optique après coloration au May-Grünwald Giemsa). Douze concentrations différentes des drogues de référence et des drogues encapsulées dans les LDL sont distribuées dans les boîtes contenant les macrophages infectés.
(§4) L'évaluation de l'efficacité d'une drogue se fait à chaque concentration. Testées après 18 h d'incubation (37°, dans un mélange air-10 % C02), les levures se multiplient d'abord au sein des cellules hôtes, puis dans le milieu extracellulaire. Le taux de macrophages infectés est alors de 75 % chez les témoins. Une cellule peut contenir de 1 à plus de 20 Candida/cellule, la majorité contient de 2 à 6 levures/cellule. Le milieu de culture contient 10^8 Candida extracellulaires/ml (comptage dans une cellule de Burker).
L'activité d'une drogue encapsulée ou non dans les LDL ou Ac-LDL par rapport à un antifongique de référence, le kétoconazole (K), est déterminé par la concentration micromolaire en drogue réduisant de 50 % le nombre de macrophages infectés par les Candida (=C150). Signalons que parallèlement à la réduction au cours du traitement, du taux de cellules infectées, le nombre de Candida par macrophage infecté diminue fortement (de 1 à 3 levures/cellule).
Le milieu de culture est RPMI + glutamine 2 mM + Hepes 10 mM + 2 % de sérum de veau foetal.

[3] = Incorporation of antifungal agent into LDL by NaDoc dissociation-reconstitution; format: physicochemical; details: 1,6 mg LDL, 482 µg of agent, dialysis
Method: On ajoute à 1,6 mg de LDL préalablement dialysées contre le tampon C, 10 mg de NaDoc solide et on laisse réagir 30 minutes à température ambiante. On ajoute à la préparation 2,8 ml d'une solution NaDoc 20 mM, Na2COs 50 mM, NaCi 50 mM, pH 10 contenant 482 µg de CT4000A ou 482 µg de CT040013. Les échantillons sont dialysés à 4° C contre trois fois 1 litre de tampon B.
Le pourcentage de récupération en LDL, en CT040013 et en NaDoc est déterminé au terme du processus de reconstitution (figure 13).
Il est également possible de rapporter la masse de substance incorporée par mole de LDL. Les résultats obtenus pour le CT04000A et la CT040013 sont respectivement de 0,4 et de 208 moles incorporés par mole de LDL.

[4] = tested on: macrophages J77468; test: Toxicity for J77468 macrophages (MTT reduction); format: cell-based, murine; details: for % de viabilité cellulaire*: 18 h, MTT
Method: as §1
La viabilité des macrophages J77468 cultivés dans du milieu contenant l'agent antifongique encapsulé ou non dans les LDL figure au Tableau 5. K et K01 sont toxiques aux concentrations nécessaires pour réduire de 50 % l'infection intracellulaire (C1250) contrairement au LDL-K01 pour lequel aucune toxicité n'a pu être détectée.

[5] = tested on: C. tropicalis; test: Extracellular infection in the infected-macrophage model; format: cell-based; details: Candida tropicalis, read-out: CIext50^(a)
Method: as §1, §2, §3, §4
L'action des AF encapsulés sur une infection extracellulaire peut être évaluée de deux manières : d'une part en déterminant le nombre de Candida extracellulaires dans un modèle d'infection intracellulaire (voir VIII § 1.1.), d'autre part en mesurant la concentration minimale inhibitrice (CMI) de ces composés par la méthode de dilutions successives dans des boîtes à multipuits (milieu RPMI).

4-désacétyl-vinblastine C-3N-dodécyl-carboxamide [C91 base]
nombre de molécules de drogue incorporées par molécule de LDL ([1]; 2 mM en NaDOC, temps d'incubation de 60 heures (3 heures à 25° C + 57 heures à 4°C)): 70 | part retrouvée dans le culot après précipitation sélective des LDL ([1]; NaDOC 2 mM): > 99%

CC(=O)N1CCN(c2ccc(OC[C@H]3CO[C@](Cn4ccnc4)(c4ccc(Cl)cc4Cl)O3)cc2)CC1 [K, reference compound]
CI50 K/AF [2]: 1 | IC50 ([2]; Candida tropicalis, Macrophage, micromolar concentration reducing infected macrophages by 50 %, 18 h, read-out: CI50 (the source's name)): 52300 nM | moles incorporés par mole de LDL [3]: 0,4 moles incorporés par mole de LDL | toxicité aux concentrations nécessaires pour réduire de 50 % l'infection intracellulaire [4]: toxiques | % de viabilité cellulaire* ([4]; Concentration 0,78 µM): 85,16% | % de viabilité cellulaire* ([4]; Concentration 1,56 µM): 86,67% | % de viabilité cellulaire* ([4]; Concentration 3,13 µM): 64,56% | % de viabilité cellulaire* ([4]; Concentration 6,25 µM): 50,52% | % de viabilité cellulaire* ([4]; Concentration 12,50 µM): 16,40% | % de viabilité cellulaire* ([4]; Concentration 25,00 µM): 3,16% | % de viabilité cellulaire* ([4]; Concentration 50,00 µM): 3,50% | % de viabilité cellulaire* ([4]; Concentration 100,00 µM, versus untreated control): 1,75% | IC50 ([5]; addition de 2 % Pl.H. (plasma humain)): 100 nM | IC50 ([5]; addition de 2 % SVF (sérum de veau foetal)): 100 nM
